# In patent US10653739B2, “Medicinal ambrosia maritima extracts” (priority 2015, dated 2020):
# Experiments:
# [1] = test system: prostate cancer cell line; assay: MTS IC50, prostate cancer cell line; assay type: cell-based; details: purified sub fractions of the organic extraction
# Description: (§1) MTS was used to evaluate IC50 (drug concentration causing 50% inhibition of the desired activity) for SLs on various bladder, prostate, breast, lung and pancreatic cancer cell lines.
# The concentration is in μmol. As expected, some of the sub fractions affected the cell line to a much greater extent to others.
# [2] = test system: UM-UC-9 (bladder) and BT-20 (breast) cancer cell line; assay: Bromouridine sequencing of nascent transcription; assay type: cell-based; details: 3.5 hours treatment
# Description: A common method of monitoring RNA changes is by labeling new RNA with Bromouridine, then isolate the RNA to see where the new RNA was made. Bromouridine sequencing is well known in the art.
# We used this method to monitor RNA in the UM-UC-9 (bladder) and BT-20 (breast) cancer cell line to detect the level of nascent transcription on the genome after treatment with SLs. Both cell lines were treated with the whole organic fraction at one time, or purified Ambrosin from the organic fraction at different doses for 3.5 hours. The RNA was then labeled with Bromouridine for half an hour and sequenced to detect the level of nascent transcription in the genome.
# [3] = test system: MDA-MB-231 breast cancer cells; assay: Orthotopic MDA-MB-231 breast cancer model; assay type: in vivo, mice; details: MDA-MB-231 triple negative cell line
# Description: Additional in vivo experiments were conducted for three breast cancer cell lines that were orthotopically injected into mice. Orthotopic injection of breast cancer cells is a powerful model to study all aspects of cancer growth. One million cells of each MDA-MB-231, SUM-159 and MDA-MB-468 were injected into the mammary fat pad of mice to form tumors. Once tumors were established, the tumors were treated with the SL-containing organic extraction of Ambrosia maritima at a dose of 200 μM of total SLs/animal daily.
# FIGS. 11A-B show the histopathology of the tumor area in the mice treated with the SLs extracted from Ambrosia maritima versus control animals for the SUM-159 and MDA-MB-231 cell lines.
# Thus, these components can be purified individually from the SL organic fraction and then combined as a potential treatment.
# [4] = test system: BT-20 breast cancer cell line; assay: MTS IC50, BT-20 breast cancer cell line; assay type: cell-based; details: Ambrosin purified from Ambrosia hispida
# Description: as §1
# (§2) Similar tests were performed with the organic extract from Ambrosia hispida.
# [5] = test system: BT-474 breast cancer cell line; assay: MTS IC50, BT-474 breast cancer cell line; assay type: cell-based; details: Homo sapiens, individual SLs
# Description: as §1
# (§3) The IC50 of the purified SLs, Parthenin, Ambrosin, Damsin, and Neoambrosin, were also tested for MDA-MB-231 cell line (FIG. 22), MDA-MB-468 (Basal Subtype Normal) cell line (FIG. 23), and BT-474 cell line (FIG. 24), an invasive ductal carcinoma cell line (luminal subtype B).
# [6] = test system: UM-UC-17 bladder cancer cell line; assay: MTS IC50, UM-UC-17 bladder cancer cell line; assay type: cell-based; details: 1000 cells/well
# Description: as §1
# (§4) The MTS test was then conducted to evaluate the different IC50 of multiple cell lines. Purification was performed to separate the organic extract of SLs into different components. Micromolar doses, instead of micrograms, as determined by the molecular weight of the different SLs, Parthenin, Ambrosin, Damsin, and Neoambrosin, were tested in vitro. Ideally, for drug treatments, micromolar weights between 10-15 are preferred.
# [7] = test system: UM-UC-7 bladder cancer cell line; assay: MTS IC50, UM-UC-7 bladder cancer cell line; assay type: cell-based; details: 1000 cells/well
# Description: as §1, §4
# [8] = test system: MDA-MB-231 breast cancer cell line; assay: MTS IC50, MDA-MB-231 breast cancer cell line; assay type: cell-based; details: for IC50: Homo sapiens, MDA-MB-231, individual SLs, MTS
# Description: as §1
# Several TNBC cell lines were tested in vitro and were treated with serial concentrations of the extracted SLs from Ambrosia maritima to determine IC50.
# as §3, §2
# [9] = test system: UM-UC-9 bladder cancer cell line; assay: MTS IC50, UM-UC-9 bladder cancer cell line; assay type: cell-based; details: 1000 cells/well
# Description: as §1, §4
# [10] = test system: MDA-MB-468 breast cancer cell line; assay: MTS IC50, MDA-MB-468 breast cancer cell line; assay type: cell-based; details: Homo sapiens, individual SLs
# Description: as §1, §3
# [11] = test system: UM-UC-15 bladder cancer cell line; assay: MTS IC50, UM-UC-15 bladder cancer cell line; assay type: cell-based; details: 1000 cells/well
# Description: as §1, §4
SMILES,IC50 [1] [µM],"nascent transcription of genes of apoptotic pathway, reactive oxygen species pathway [2]",nascent transcription of hallmark genes related to cancer progression and proliferation [2],level of expression of HER2 and p65 in xenografted animals [3],"IC50 of purified Ambrosin compared with SL extract of Ambrosia hispida, BT-20 [4]",IC50 [5] [µM],IC50 [6] [µM],IC50 [7] [µM],"IC50 of purified Ambrosin compared with SL extract of Ambrosia hispida, MDA-MB-231 ([8]; Ambrosin purified from Ambrosia hispida)",IC50 [8] [µM],IC50 ([9]; MTS) [µM],"IC50 ([9]; UM-UC-9, MTS) [µM]",IC50 [10] [µM],IC50 [11] [µM]
"C=C1C(=O)O[C@@H]2[C@H]1CC[C@H](C)[C@@H]1C=CC(=O)[C@@]21C (single isomer, unassigned) [AMBROSIN, Ambrosin]",2.71,upregulated,transcribing them at lower level than the control,significant improves,greater IC50,2.17,1.35,4.89,greater IC50,1.02,6.25,< 10,0.882,0.991
"C=C1C(=O)O[C@@H]2[C@H]1CC[C@H](C)[C@@H]1CCC(=O)[C@@]21C (single isomer, unassigned) [DAMSIN, Damsin]",1.16,–,–,significant improves,–,2.8,2.86,1.09,–,1.6,4.73,–,0.935,1.06
"C=C1C(=O)O[C@@H]2[C@H]1CC[C@H](C)C1=CCC(=O)[C@]12C (single isomer, unassigned) [NEOAMBROSIN, Neoambrosin]",264,–,–,–,–,36.1,31.8,120,–,22.5,–,142,9.08,146
"C=C1C(=O)O[C@@H]2[C@H]1CC[C@H](C)[C@]1(O)C=CC(=O)[C@@]21C (single isomer, unassigned) [PARTHENIN, Parthenin]",4.88,–,–,–,–,8.57,6.32,6.49,–,4.74,–,14.2,1.23,4.9
